Laboratory results reported in patent US20250042922A1, “KRAS MODULATING COMPOUNDS” (priority 2023, published 2025).

Key:
[1] = system: cellular pERK in NCI-H441 (KRAS-G12V) cells; assay: Cell based pERK assay, NCI-H441; conditions: Homo sapiens; NCI-H441 (KRAS-G12V), 2 hours incubation, HTRF phospho-ERK1/2; read-out: H441 PERK EC50
Procedure: (§1) Compounds were tested in a 384-well assay format for their ability to inhibit cellular pERK in Kuramochi (WT KRAS), MIA-PaCa-2 (KRAS-G12C), ASPC-1 (KRAS G12D), and NCI-H441 (KRAS-G12V) cell-lines. Compounds were serially diluted (1:3) in DMSO. On day −1, 80 μL of cells were plated per well in the 384 well tissue-culture plates (Greiner: Cat #781080) to seed 5000 cells per wells of AsPC-1 or 7500 cells of MIA-PaCa-2, NCI-H441, and Kuramochi cell lines in RPMI (Corning: Cat #10-040-CM) with 10% fetal bovine serum (FBS) (HyClone: Cat #SH30071-03) and 1× penicillin-streptomycin-glutamate (PSG) (Corning: Cat #30-009-CI) for […] and Kuramochi cell lines and DMEM (Corning: Cat #15-018-CM) with 10% FBS and 1×PSG for MIA-PaCa-2 cell line. The plates were then incubated overnight at 37° C. and 5% CO2. On day 0, 400 nL of compound/well was added into the cell plates and mixed 5 times by pipetting using a Beckmann Biomek FX. The cell plates were then incubated for 2 hours at 37° C. and 5% CO2. HTRF Advanced Phospho-ERK1/2 (THR202/TYR204) Detection Kits (PerkinElmer: Cat #64AERPEG) were used to prepare the lysis and detection solution according to manufacturer protocol. Following the 2 hour incubation, 70 μL of medium was aspirated from the plates and 10 uL of lysis and detection solution was added to the plates using a Biotek EL406 washer and dispenser. Plates were sealed and stored overnight at room temperature. HTRF ratio (665 nm/615 nm) was read by Envision multimode reader (PerkinElmer) the next day. The TR-FRET ratios were normalized to a positive (saturating concentration of known inhibitor) and negative (DMSO) control and plotted against the log of compound concentration.

[2] = system: cellular pERK in ASPC-1 (KRAS G12D) cells; assay: Cell based pERK assay, ASPC-1; conditions: Homo sapiens, ASPC1; ASPC-1 (KRAS G12D), 2 hours incubation, HTRF phospho-ERK1/2; read-out: AsPC1 pERK EC50
Procedure: as §1

[3] = system: cellular pERK in Kuramochi (WT KRAS) cells; assay: Cell based pERK assay, Kuramochi; conditions: Kuramochi (WT KRAS), 2 hours incubation, HTRF phospho-ERK1/2; read-out: Kuramochi pERK EC50
Procedure: as §1

[4] = system: cellular pERK in MIA-PaCa-2 (KRAS-G12C) cells; assay: Cell based pERK assay, MIA-PaCa-2; conditions: Homo sapiens; MIA-PaCa-2 (KRAS-G12C), 2 hours incubation, HTRF phospho-ERK1/2; read-out: MIAPaCa2 pERK EC50
Procedure: as §1

## C#Cc1c(F)ccc2cc(O)cc(-c3nc4c5c(nc(OC[C@@]67CCCN6C[C@H](F)C7)nc5c3F)N3C[C@@]5(F)CC[C@H](N5)[C@H]3CC4)c12 [Example 1-1, 4-((5aR,6S,9S)-1,9-difluoro-12-(((2R,7aS)-2-fluorotetrahydro-1H-pyrrolizin-7a(5H)-yl)methoxy)-4,5,5a,6,7,8,9,10-octahydro-3,10a,11,13,14-pentaaza-6,9-methanonaphtho[1,8-ab]heptalen-2-yl)-5-ethynyl-6-fluoronaphthalen-2-ol]
[1]
  EC50: 4.93 nM
[2]
  EC50: 38.2 nM
[3]
  EC50: 2.68 nM
[4]
  EC50: 3.27 nM

## C#Cc1c(F)ccc2cc(N)cc(-c3nc4c5c(nc(OC[C@@]67CCCN6C[C@H](F)C7)nc5c3F)N3C[C@@]5(F)CC[C@](F)(N5)[C@H]3CCC4)c12 [Example 4-2, 5-ethynyl-6-fluoro-4-((6aR,7R,10S)-1,7,10-trifluoro-13-(((2R,7aS)-2-fluorotetrahydro-1H-pyrrolizin-7a(5H)-yl)methoxy)-5,6,6a,7,8,9,10,11-octahydro-4H-3,11a,12,14,15-pentaaza-7,10-methanocyclohepta[4,5]cycloocta[1,2,3-de]naphthalen-2-yl)naphthalen-2-amine]
[1]
  EC50: 3.04 nM
[2]
  EC50: 20 nM
[3]
  EC50: 2.89 nM

## C#Cc1c(F)ccc2cc(O)cc(-c3nc4c5c(nc(OCC67CCCN6CCC7)nc5c3F)N3C[C@@]5(F)CC[C@](F)(N5)[C@H]3CCC4)c12 [Example 4-5, 5-ethynyl-6-fluoro-4-((6aR,7R,10S)-1,7,10-trifluoro-13-((tetrahydro-1H-pyrrolizin-7a(5H)-yl)methoxy)-5,6,6a,7,8,9,10,11-octahydro-4H-3,11a,12,14,15-pentaaza-7,10-methanocyclohepta[4,5]cycloocta[1,2,3-de]naphthalen-2-yl)naphthalen-2-ol]
[2]
  EC50: 10.1 nM
[3]
  EC50: 6.47 nM
[4]
  EC50: 0.397 nM

## N#Cc1c(F)ccc2cc(O)cc(-c3nc4c5c(nc(OCC67CCCN6CCC7)nc5c3F)N3C[C@@]5(F)CC[C@](F)(N5)[C@H]3CCC4)c12 [Example 4-9, 2-fluoro-6-hydroxy-8-((6aR,7R,10S)-1,7,10-trifluoro-13-((tetrahydro-1H-pyrrolizin-7a(5H)-yl)methoxy)-5,6,6a,7,8,9,10,11-octahydro-4H-3,11a,12,14,15-pentaaza-7,10-methanocyclohepta[4,5]cycloocta[1,2,3-de]naphthalen-2-yl)-1-naphthonitrile]
[2]
  EC50: 323 nM
[3]
  EC50: 13.2 nM
[4]
  EC50: 6.08 nM

## C#Cc1c(F)ccc2c(F)c(N)cc(-c3nc4c5c(nc(OCC67CCCN6CCC7)nc5c3F)N3C[C@@]5(F)CC[C@](F)(N5)[C@H]3CCC4)c12 [Example 4-18, 5-ethynyl-1,6-difluoro-4-((6aR,7R,10S)-1,7,10-trifluoro-13-((tetrahydro-1H-pyrrolizin-7a(5H)-yl)methoxy)-5,6,6a,7,8,9,10,11-octahydro-4H-3,11a,12,14,15-pentaaza-7,10-methanocyclohepta[4,5]cycloocta[1,2,3-de]naphthalen-2-yl)naphthalen-2-amine]
[2]
  EC50: 388 nM
[3]
  EC50: 13.3 nM
[4]
  EC50: 22.3 nM

## Oc1cc(-c2nc3c4c(nc(OCC56CCCN5CCC6)nc4c2F)N2C[C@@]4(F)CC[C@](F)(N4)[C@H]2CCC3)c2c(F)c(F)ccc2c1 [Example 4-22, 5,6-difluoro-4-[(4S,7R,8R)-4,7,15-trifluoro-18-(1,2,3,5,6,7-hexahydropyrrolizin-8-ylmethoxy)-2,13,17,19,21-pentazapentacyclo[10.7.1.14,7.02,8.016,20]henicosa-1(19),12(20),13,15,17-pentaen-14-yl]naphthalen-2-ol]
[2]
  EC50: 83.4 nM
[3]
  EC50: 4.1 nM
[4]
  EC50: 2.03 nM

## C#Cc1c(F)ccc2cccc(-c3nc4c5c(nc(OCC67CCCN6CCC7)nc5c3F)N3C[C@@]5(F)CC[C@](F)(N5)[C@@H]3[C@@H](C)C4)c12 [Example 4-31, (5S,5aS,6R,9S)-2-(8-ethynyl-7-fluoronaphthalen-1-yl)-1,6,9-trifluoro-5-methyl-12-((tetrahydro-1H-pyrrolizin-7a(5H)-yl)methoxy)-4,5,5a,6,7,8,9,10-octahydro-3,10a,11,13,14-pentaaza-6,9-methanonaphtho[1,8-ab]heptalene]
[2]
  EC50: 38.1 nM
[3]
  EC50: 1.36 nM
[4]
  EC50: 2.19 nM

## C#Cc1c(F)c(F)cc2cc(O)cc(-c3nc4c5c(nc(OCC67CCCN6CCC7)nc5c3F)N3C[C@@]5(F)CC[C@](F)(N5)[C@@H]3[C@@H](C)C4)c12 [Example 4-33, 5-ethynyl-6,7-difluoro-4-((5S,5aS,6R,9S)-1,6,9-trifluoro-5-methyl-12-((tetrahydro-1H-pyrrolizin-7a(5H)-yl)methoxy)-4,5,5a,6,7,8,9,10-octahydro-3,10a,11,13,14-pentaaza-6,9-methanonaphtho[1,8-ab]heptalen-2-yl)naphthalen-2-ol]
[2]
  EC50: 12.4 nM
[3]
  EC50: 8.68 nM
[4]
  EC50: 0.286 nM

## C#Cc1c(F)ccc2cc(N)cc(-c3nc4c5c(nc(OC[C@@]67CCCN6C[C@H](F)C7)nc5c3F)N3C[C@@]5(F)CC[C@H](N5)[C@@H]3[C@@H](C)[C@H]4C)c12 [Example 4-37, 4-((4R,5S,5aS,6S,9S)-1,9-difluoro-12-(((2R,7aS)-2-fluorotetrahydro-1H-pyrrolizin-7a(5H)-yl)methoxy)-4,5-dimethyl-4,5,5a,6,7,8,9,10-octahydro-3,10a,11,13,14-pentaaza-6,9-methanonaphtho[1,8-ab]heptalen-2-yl)-5-ethynyl-6-fluoronaphthalen-2-amine]
[1]
  EC50: 0.475 nM
[2]
  EC50: 4.65 nM
[4]
  EC50: 0.153 nM

## Nc1cc(-c2nc3c4c(nc(OCC56CCCN5CCC6)nc4c2F)N2C[C@@]4(F)CC[C@](F)(N4)[C@H]2CCC3)c2c(Cl)c(F)ccc2c1 [Example 5-2, 5-chloro-6-fluoro-4-((6aR,7R,10S)-1,7,10-trifluoro-13-((tetrahydro-1H-pyrrolizin-7a(5H)-yl)methoxy)-5,6,6a,7,8,9,10,11-octahydro-4H-3,11a,12,14,15-pentaaza-7,10-methanocyclohepta[4,5]cycloocta[1,2,3-de]naphthalen-2-yl)naphthalen-2-amine]
[2]
  EC50: 338 nM
[3]
  EC50: 4.4 nM
[4]
  EC50: 17.7 nM

## CCc1c(F)ccc2cc(N)cc(-c3nc4c5c(nc(OCC67CCCN6CCC7)nc5c3F)N3C[C@@]5(F)CC[C@](F)(N5)[C@H]3CCC4)c12 [Example 6-2, 5-ethyl-6-fluoro-4-((6aR,7R,10S)-1,7,10-trifluoro-13-((tetrahydro-1H-pyrrolizin-7a(5H)-yl)methoxy)-5,6,6a,7,8,9,10,11-octahydro-4H-3,11a,12,14,15-pentaaza-7,10-methanocyclohepta[4,5]cycloocta[1,2,3-de]naphthalen-2-yl)naphthalen-2-amine]
[2]
  EC50: 456 nM
[3]
  EC50: 6.48 nM
[4]
  EC50: 22.6 nM

## CCc1c(F)ccc2cc(O)cc(-c3nc4c5c(nc(OCC67CCCN6CCC7)nc5c3F)N3C[C@@]5(F)CC[C@](F)(N5)[C@@H]3[C@@H](C)C4)c12 [Example 6-3, 5-ethyl-6-fluoro-4-((8S,8aS,9R,12S)-4,9,12-trifluoro-8-methyl-2-((tetrahydro-1H-pyrrolizin-7a(5H)-yl)methoxy)-7,8,8a,9,10,11,12,13-octahydro-1,3,6,13a,14-pentaaza-9,12-methanonaphtho[1,8-ab]heptalen-5-yl)naphthalen-2-ol]
[2]
  EC50: 20 nM
[3]
  EC50: 6.62 nM
[4]
  EC50: 0.513 nM

## CCc1c(F)ccc2cc(N)cc(-c3nc4c5c(nc(OCC67CCCN6CCC7)nc5c3F)N3C[C@@]5(F)CC[C@](F)(N5)[C@@H]3[C@@H](C)C4)c12 [Example 6-4, 5-ethyl-6-fluoro-4-((8S,8aS,9R,12S)-4,9,12-trifluoro-8-methyl-2-((tetrahydro-1H-pyrrolizin-7a(5H)-yl)methoxy)-7,8,8a,9,10,11,12,13-octahydro-1,3,6,13a,14-pentaaza-9,12-methanonaphtho[1,8-ab]heptalen-5-yl)naphthalen-2-amine]
[2]
  EC50: 197 nM
[3]
  EC50: 8.24 nM
[4]
  EC50: 12.8 nM
